Reference: ChEMBL document CHEMBL4613209, “Quinolone hybrids and their anti-cancer activities: An overview” (Eur J Med Chem, 2019)

Experiments:
U-251 = experiment: Cytotoxicity against human U251 cells assessed as reduction in cell viability by SRB assay; assay type: functional, cell-based
HCT-116 = experiment: Cytotoxicity against human HCT116 cells assessed as reduction in cell viability by SRB assay; assay type: functional, cell-based
NCI-H460 = experiment: Cytotoxicity against human NCI-H460 cells assessed as reduction in cell viability by SRB assay; assay type: functional, cell-based
L1210 = experiment: Cytotoxicity against mouse L1210 cells assessed as reduction in cell viability; assay type: functional, cell-based
HL-60 = experiment: Cytotoxicity against human HL60 cells assessed as reduction in cell viability; assay type: functional, cell-based
SMMC-7721 = experiment: Cytotoxicity against human SMMC7721 cells assessed as reduction in cell viability; assay type: functional, cell-based
PC-3 = experiment: Antiproliferative activity against human PC3 cells by CCK8 assay; assay type: functional, cell-based
A549 = experiment: Antiproliferative activity against human A549 cells by CCK8 assay; assay type: functional, cell-based
HepG2 = experiment: Antiproliferative activity against human HepG2 cells by CCK8 assay; assay type: functional, cell-based
HeLa = experiment: Antiproliferative activity against human HeLa cells by CCK8 assay; assay type: functional, cell-based
MCF-10A = experiment: Antiproliferative activity against human MCF10A cells by CCK8 assay; assay type: cell-based
MCF7 = experiment: Antiproliferative activity against human MCF7 cells by CCK8 assay; assay type: functional, cell-based
Hep 3B2 = experiment: Cytotoxicity against human Hep3B cells assessed as reduction in cell viability; assay type: functional, cell-based
CAPAN-1 = experiment: Cytotoxicity against human Capan1 cells assessed as reduction in cell viability; assay type: functional, cell-based

SMILES | IC50 (U-251) [µM] | IC50 (HCT-116) [µM] | IC50 (NCI-H460) [µM] | IC50 (L1210) [µM] | IC50 (HL-60) [µM] | IC50 (SMMC-7721) [µM] | also measured
O=c1[nH]c2ccccc2c2n[nH]c(-c3cn(-c4ccccc4)nc3-c3ccccc3)c12 | 0.16 to 0.3 | 0.16 to 0.3 | 0.16 to 0.3 | – | – | – | –
CCn1cc(-c2nnc(SC/C(=N/NC(N)=S)c3ccccc3OC)[nH]2)c(=O)c2cc(F)c(N3CCN(C)CC3)cc21 | – | – | – | 2.7 to 27.6 | 2.7 to 27.6 | 2.7 to 27.6 | –
CCn1cc(-c2nnc(SC/C(=N/NC(N)=S)c3ccc4c(c3)OCO4)[nH]2)c(=O)c2cc(F)c(N3CCN(C)CC3)cc21 | – | – | – | 2.7 to 27.6 | 2.7 to 27.6 | 2.7 to 27.6 | –
C[C@H]1COc2c(N3CCN(C)CC3)c(F)cc3c(=O)c(C(=O)OCc4cn(CCCCCCC(=O)O)nn4)cn1c23 | – | – | – | – | – | – | IC50 (PC-3): 7.8 to 16.5 µM; IC50 (A549): 7.8 to 16.5 µM; IC50 (HepG2): 7.8 to 16.5 µM; IC50 (HeLa): 7.8 to 16.5 µM; IC50 (MCF-10A): > 100 µM; IC50 (MCF7): 7.8 to 16.5 µM
CCn1cc(-c2nnc(SC/C(=N/NC(N)=S)c3ccccc3)[nH]2)c(=O)c2cc(F)c(N3CCN(C)CC3)cc21 | – | – | – | 2.7 to 27.6 | 2.7 to 27.6 | 2.7 to 27.6 | –
O=c1[nH]cc(F)c(=O)[nH]1 [FLUOROURACIL] | 0.54 | 0.54 | 0.54 | – | – | – | –
O=C(CCCCCCC(=O)Nc1ccccc1)NO [VORINOSTAT] | – | – | – | – | – | – | IC50 (A549): 2.9 to 6.4 µM; IC50 (HeLa): 2.9 to 6.4 µM
CCn1cc(-c2nnc(SC/C(=N/NC(N)=S)c3ccccc3O)[nH]2)c(=O)c2cc(F)c(N3CCN(C)CC3)cc21 | – | – | – | 2.7 to 8.6 | 2.7 to 8.6 | 2.7 to 8.6 | –
C[C@H]1COc2c(N3CCN(C)CC3)c(F)cc3c(=O)c(C(=O)OCc4cn(CCCCCCCC(=O)O)nn4)cn1c23 | – | – | – | – | – | – | IC50 (PC-3): 7.8 to 16.5 µM; IC50 (A549): 7.8 to 16.5 µM; IC50 (HepG2): 7.8 to 16.5 µM; IC50 (HeLa): 7.8 to 16.5 µM; IC50 (MCF-10A): > 100 µM; IC50 (MCF7): 7.8 to 16.5 µM
CCn1cc(-c2nnc(SC/C(=N/NC(N)=S)c3ccc(O)cc3)[nH]2)c(=O)c2cc(F)c(N3CCN(C)CC3)cc21 | – | – | – | 2.7 to 8.6 | 2.7 to 8.6 | 2.7 to 8.6 | –
O=C(CCCCCn1cc(C(=O)Nc2nccs2)c(=O)c2ccccc21)NO | 5 to 16 | 5 to 16 | 5 to 16 | – | – | – | –
COc1ccc(-c2c3c(=O)[nH]c4ccccc4c3nn2C(C)=O)cc1 | 0.16 to 0.3 | 0.16 to 0.3 | 0.16 to 0.3 | – | – | – | –
C[C@H]1COc2c(N3CCN(C)CC3)c(F)cc3c(=O)c(C(=O)NCc4cn(CCCCCCC(=O)O)nn4)cn1c23 | – | – | – | – | – | – | IC50 (PC-3): 7.8 to 16.5 µM; IC50 (A549): 7.8 to 16.5 µM; IC50 (HepG2): 7.8 to 16.5 µM; IC50 (HeLa): 7.8 to 16.5 µM; IC50 (MCF-10A): > 100 µM; IC50 (MCF7): 7.8 to 16.5 µM
O=C(CCCCCn1cc(C(=O)Nc2nc3ccccc3s2)c(=O)c2cc(F)ccc21)NO | 0.6 to 16 | 0.6 to 16 | 0.6 to 16 | – | – | – | –
Cc1csc(NC(=O)c2cn(CCCCCC(=O)NO)c3ccccc3c2=O)n1 | 2.43 to 2.9 | 2.43 to 2.9 | 2.43 to 2.9 | – | – | – | –
C[C@H]1COc2c(N3CCN(C)CC3)c(F)cc3c(=O)c(C(=O)NCc4cn(CCCCCC(=O)O)nn4)cn1c23 | – | – | – | – | – | – | IC50 (PC-3): 7.8 to 16.5 µM; IC50 (A549): 7.8 to 16.5 µM; IC50 (HepG2): 7.8 to 16.5 µM; IC50 (HeLa): 7.8 to 16.5 µM; IC50 (MCF-10A): > 100 µM; IC50 (MCF7): 7.8 to 16.5 µM
COc1ccc2c(c1)c(=O)c(C(=O)Nc1nc3ccccc3s1)cn2CCCCCC(=O)NO | 0.6 to 16 | 0.6 to 16 | 0.6 to 16 | – | – | – | –
CN1CCN(c2cc3c(cc2F)c(=O)c(-c2nc4s/c(=C\c5cccc(C(=O)O)c5)c(=O)n4n2)cn3C2CC2)CC1 | – | – | – | – | 0.3 to 8.4 | – | IC50 (Hep 3B2): 0.3 to 8.4 µM; IC50 (CAPAN-1): 0.3 to 8.4 µM
O=c1[nH]c2ccccc2c2nn(-c3ccccc3)c(-c3cn(-c4ccccc4)nc3-c3ccccc3)c12 | 0.16 to 0.3 | 0.16 to 0.3 | 0.16 to 0.3 | – | – | – | –
CN1CCN(c2cc3c(cc2F)c(=O)c(-c2nc4s/c(=C\c5cccc([N+](=O)[O-])c5)c(=O)n4n2)cn3C2CC2)CC1 | – | – | – | – | 0.3 to 8.4 | – | IC50 (Hep 3B2): 0.3 to 8.4 µM; IC50 (CAPAN-1): 0.3 to 8.4 µM
CCn1cc(-c2nnc(SC/C(=N/NC(N)=S)c3ccc(OC)cc3)[nH]2)c(=O)c2cc(F)c(N3CCN(C)CC3)cc21 | – | – | – | 2.7 to 27.6 | 2.7 to 27.6 | 2.7 to 27.6 | –

SMILES | IC50 (U-251) [µM] | IC50 (HCT-116) [µM] | IC50 (NCI-H460) [µM] | IC50 (L1210) [µM] | IC50 (HL-60) [µM] | IC50 (SMMC-7721) [µM] | also measured
CCn1cc(-c2nnc(SC/C(=N/NC(N)=S)c3ccc(OC)c(OC)c3)[nH]2)c(=O)c2cc(F)c(N3CCN(C)CC3)cc21 | – | – | – | 2.7 to 27.6 | 2.7 to 27.6 | 2.7 to 27.6 | –
O=c1[nH]c2ccccc2c2n[nH]c(/C=C/c3ccccc3)c12 | 0.16 to 0.3 | 0.16 to 0.3 | 0.16 to 0.3 | – | – | – | –
C[C@H]1COc2c(N3CCN(C)CC3)c(F)cc3c(=O)c(C(=O)O)cn1c23 [LEVOFLOXACIN] | – | – | – | – | – | – | IC50 (PC-3): 64.2 to 100 µM; IC50 (A549): 64.2 to 100 µM; IC50 (HepG2): 64.2 to 100 µM; IC50 (HeLa): 64.2 to 100 µM; IC50 (MCF-10A): 25.2 µM; IC50 (MCF7): 64.2 to 100 µM
Cc1ccc(/C=c2\sc3nc(-c4cn(C5CC5)c5cc(N6CCN(C)CC6)c(F)cc5c4=O)nn3c2=O)cc1 | – | – | – | – | > 10 | – | IC50 (Hep 3B2): > 10 µM; IC50 (CAPAN-1): > 10 µM
CCn1cc(C(=O)O)c(=O)c2cc(F)c(N3CCN(C)CC3)cc21 [PEFLOXACIN] | – | – | – | > 100 | > 100 | > 100 | –
C[C@H]1COc2c(N3CCN(C)CC3)c(F)cc3c(=O)c(C(=O)NCc4cn(CCCCCCCC(=O)O)nn4)cn1c23 | – | – | – | – | – | – | IC50 (PC-3): 7.8 to 16.5 µM; IC50 (A549): 7.8 to 16.5 µM; IC50 (HepG2): 7.8 to 16.5 µM; IC50 (HeLa): 7.8 to 16.5 µM; IC50 (MCF-10A): > 100 µM; IC50 (MCF7): 7.8 to 16.5 µM
CN1CCN(c2cc3c(cc2F)c(=O)c(-c2nc4s/c(=C\c5cccc(C#N)c5)c(=O)n4n2)cn3C2CC2)CC1 | – | – | – | – | > 10 | – | IC50 (Hep 3B2): > 10 µM; IC50 (CAPAN-1): > 10 µM
COc1ccc2c(c1)c(=O)c(C(=O)Nc1cc(-c3ccccc3)nn1C)cn2CCCCCC(=O)NO | 0.6 to 16 | 0.6 to 16 | 0.6 to 16 | – | – | – | –
CCn1cc(-c2nnc(SC/C(=N/NC(N)=S)c3ccc(F)cc3)[nH]2)c(=O)c2cc(F)c(N3CCN(C)CC3)cc21 | – | – | – | 2.7 to 8.6 | 2.7 to 8.6 | 2.7 to 8.6 | –
CCn1cc(-c2nnc(SC/C(=N/NC(N)=S)c3ccc([N+](=O)[O-])cc3)[nH]2)c(=O)c2cc(F)c(N3CCN(C)CC3)cc21 | – | – | – | 2.7 to 27.6 | 2.7 to 27.6 | 2.7 to 27.6 | –
CCn1cc(-c2nnc(SC/C(=N/NC(N)=S)c3ccc(C)cc3)[nH]2)c(=O)c2cc(F)c(N3CCN(C)CC3)cc21 | – | – | – | 2.7 to 27.6 | 2.7 to 27.6 | 2.7 to 27.6 | –
CN1CCN(c2cc3c(cc2F)c(=O)c(-c2nc4s/c(=C\c5cccc(S(N)(=O)=O)c5)c(=O)n4n2)cn3C2CC2)CC1 | – | – | – | – | 0.3 to 8.4 | – | IC50 (Hep 3B2): 0.3 to 8.4 µM; IC50 (CAPAN-1): 0.3 to 8.4 µM
CC(=O)n1cc2c(=O)[nH]c3ccccc3c2n1 | 0.16 to 0.3 | 0.16 to 0.3 | 0.16 to 0.3 | – | – | – | –
CC(=O)n1nc2c(c1-c1cccs1)c(=O)[nH]c1ccccc12 | 0.16 to 0.3 | 0.16 to 0.3 | 0.16 to 0.3 | – | – | – | –
C[C@H]1COc2c(N3CCN(C)CC3)c(F)cc3c(=O)c(C(=O)OCc4cn(CCCCCC(=O)O)nn4)cn1c23 | – | – | – | – | – | – | IC50 (PC-3): 7.8 to 16.5 µM; IC50 (A549): 7.8 to 16.5 µM; IC50 (HepG2): 7.8 to 16.5 µM; IC50 (HeLa): 7.8 to 16.5 µM; IC50 (MCF-10A): > 100 µM; IC50 (MCF7): 7.8 to 16.5 µM
CCn1cc(-c2nnc(SC/C(=N/NC(N)=S)c3ccc(O)c(OC)c3)[nH]2)c(=O)c2cc(F)c(N3CCN(C)CC3)cc21 | – | – | – | 2.7 to 8.6 | 2.7 to 8.6 | 2.7 to 8.6 | –
O=C(CCCCCn1cc(C(=O)Nc2nc3ccccc3s2)c(=O)c2ccccc21)NO | 0.6 to 1 | 0.6 to 1 | 0.6 to 1 | – | – | – | –
Cn1nc(-c2ccccc2)cc1NC(=O)c1cn(CCCCCC(=O)NO)c2ccccc2c1=O | 0.6 to 16 | 0.6 to 16 | 0.6 to 16 | – | – | – | –
CCn1cc(-c2nnc(SC/C(=N/NC(N)=S)c3ccc(Cl)cc3)[nH]2)c(=O)c2cc(F)c(N3CCN(C)CC3)cc21 | – | – | – | 2.7 to 27.6 | 2.7 to 27.6 | 2.7 to 27.6 | –
CN1CCN(c2cc3c(cc2F)c(=O)c(-c2nc4s/c(=C\c5ccc(Cl)cc5)c(=O)n4n2)cn3C2CC2)CC1 | – | – | – | – | > 10 | – | IC50 (Hep 3B2): > 10 µM; IC50 (CAPAN-1): > 10 µM
